“And” between values parts separate entries of the source, which are not always exact repeats. Identical values can stand only once.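 Five concentrations, 48 hours, 96-well plates. At the GI50, growth is halved. TGI marks complete inhibition of growth.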
Columns and labels:
Experiment in all cases: NCI-60 cell line screen, 48 h
M19-MEL melanoma = test system: M19-MEL melanoma
OVCAR-5 ovarian = test system: OVCAR-5 ovarian
LOX IMVI melanoma = test system: LOX IMVI melanoma
SR leukemia = test system: SR leukemia
RXF 393 renal = test system: RXF 393 renal
UO-31 renal = test system: UO-31 renal
M14 melanoma = test system: M14 melanoma
HCC-2998 colon = test system: HCC-2998 colon
NCI/ADR-RES ovarian = test system: NCI/ADR-RES ovarian

Row | SMILES | TGI (M19-MEL melanoma) | TGI (OVCAR-5 ovarian) | TGI (LOX IMVI melanoma) | TGI (SR leukemia) | TGI (RXF 393 renal) | TGI (UO-31 renal) | TGI (M14 melanoma) | GI50 (OVCAR-5 ovarian) | GI50 (LOX IMVI melanoma) | GI50 (SR leukemia) | GI50 (HCC-2998 colon) | TGI (HCC-2998 colon) | GI50 (RXF 393 renal) | GI50 (NCI/ADR-RES ovarian) | TGI (NCI/ADR-RES ovarian) | GI50 (UO-31 renal) | GI50 (M14 melanoma) | GI50 (M19-MEL melanoma)
1 | O=C1NC2(CCCC2)C(=O)C12CCCC2 | > 100 µM | > 100 µM | > 100 µM | > 100 µM | > 100 µM | > 100 µM | > 100 µM | – | – | – | – | – | – | – | – | – | – | –
2 | CN=C(N)N/N=C(\c1ccccc1)c1ccc(Br)cc1 | – | 5.62 µM | 2.97 µM | 2.42 µM | 0.711 µM | 6.28 µM | 0.872 µM | 0.494 µM | 0.494 µM | 0.31 µM | 0.38 µM | 1.37 µM | 0.247 µM | 0.322 µM | 3.25 µM | 0.519 µM | 0.272 µM | –
3 | NC(CO)Cc1cnc[nH]1 (stereo unspecified) | – | > 100 µM | > 100 µM | > 100 µM | > 10 µM | > 100 µM | > 100 µM | – | > 100 µM | > 100 µM | > 100 µM | > 100 µM | – | > 100 µM | > 100 µM | > 100 µM | – | –
4 | C[C@@H]1CC[C@@H]2[C@@H]1[C@H](OC(=O)/C=C/c1ccccc1)[C@]1(c3ccccc3)C[C@@H](OC(=O)CO)[C@@]2(C)O1 | – | 34.5 µM | 27.2 µM | 38.8 µM | 13.7 µM | 0.305 µM | 35.8 µM | 15.5 µM | 13.9 µM | 5.86 µM | 14.6 µM | 29 µM | 0.252 µM | 4.41 µM | 24.9 µM | 0.154 µM | 16.2 µM | –
5 | O=C(Nc1nc2ccccc2s1)OCC(F)(F)F | – | > 100 µM | > 100 µM | > 100 µM | > 100 µM | > 100 µM | > 100 µM | > 100 µM | > 100 µM | > 100 µM | > 100 µM | > 100 µM | > 100 µM | > 100 µM | > 100 µM | 45.6 µM | > 100 µM | –
6 | CC(=O)OCC1OC(O[C@@H]2C[C@H]3C(C)(C)[C@H](OC(C)=O)CC[C@]3(C)[C@H]3CCC4=C([C@@H](C)C[C@@H](O)[C@H](O)C(C)(C)O)CC[C@@]4(C)[C@@]32C)C(O)C(O)C1O (stereo partly specified) | – | 31.6 µM | 25 µM | 27.8 µM | 28 µM | 32.7 µM | 31.4 µM | 17.7 µM | 12.5 µM | 12.2 µM | 12 µM | 25.2 µM | 14.8 µM | 20.4 µM | 43.5 µM | 18.4 µM | 17.3 µM | –
7 | Cc1ccc2c(C(C[N+](=O)[O-])c3cccs3)c(-c3ccccc3)[nH]c2c1 (stereo unspecified) | – | 11.1 µM | 6.05 µM | > 33.3 µM | 4.36 µM | 6.68 µM | 5.57 µM | 4.07 µM | 1.78 µM | 1.43 µM | 3.61 µM | 8.01 µM | 1.16 µM | 0.984 µM | 3.68 µM | 2.03 µM | 1.28 µM | –
8 | Cc1nn(-c2ccc(F)cc2)c2ncnc(Nc3ccc(NC(=O)Nc4ccc(Cl)c(C(F)(F)F)c4)cc3)c12 | – | 11.9 µM | 4.48 µM | 40.5 µM | 5.98 µM | 4.17 µM | 11.6 µM | 2.81 µM | 1.96 µM | 3.07 µM | 2.57 µM | 10.6 µM | 1.86 µM | 2.43 µM | 10.9 µM | 1.65 µM | 3.03 µM | –
9 | COc1ccc(C(=O)Nc2ncc(Cc3ccc(Cl)cc3)s2)cc1 | – | > 100 µM | > 100 µM | > 70.4 µM | 0.927 µM | > 100 µM | > 100 µM | 0.247 µM | 0.0628 µM | 0.0375 µM | 0.166 µM | 12.7 µM | 0.048 µM | 0.0457 µM | – | 0.91 µM | 0.0422 µM | –
10 | CCn1c(-c2nonc2N)nc2c(C#CCN)ncc(OCCCN)c21 | – | > 25 µM | > 25 µM | > 25 µM | > 25 µM | > 25 µM | > 25 µM | > 25 µM | > 25 µM | > 25 µM | > 25 µM | > 25 µM | > 25 µM | > 25 µM | > 25 µM | > 25 µM | > 25 µM | –
11 | CC(=O)[CH-]C(=O)c1ccccc1.CC(=O)[CH-]C(=O)c1ccccc1.CCCCCCCCCCCCCCCCCC(=O)[O-].CCCCCCCCCCCCCCCCCC(=O)[O-].[Ti+4] | 97.9 µM | > 100 µM | 35.9 µM | – | 33.9 µM | 26.7 µM | 31.9 µM | 36.7 µM | 18 µM | – | – | – | 19.7 µM | – | – | 13.8 µM | 17.4 µM | 27.6 µM
12 | Clc1ccccc1C(c1ccccc1)(c1ccccc1)n1ccnc1 | – | 15.5 µM and 29.8 µM | 4.66 µM | 6.93 µM | 9.28 µM and 42.1 µM | 9 µM and 19.8 µM | 5.46 µM and 29.8 µM | 4.05 µM | 1.69 µM | 1.86 µM | 3.3 µM | 12.7 µM and 31 µM | 2.89 µM | 2.88 µM | 13.3 µM and 28.2 µM | 1.45 µM | 2.23 µM | –
13 | COc1cc2ncn(-c3cc(OCc4ccccc4Cl)c(C(N)=O)s3)c2cc1OC | – | > 25 µM | > 25 µM | > 25 µM | 4.22 µM | > 25 µM | > 25 µM | 0.492 µM | 0.169 µM | 0.113 µM | 0.488 µM | > 25 µM | 0.102 µM | 0.22 µM | > 10.3 µM | 1.14 µM | 0.164 µM | –
14 | Cc1cc(=O)cc2sc3c(C)cccc3nc1-2 | 36.5 µM | > 100 µM | 39.2 µM | > 100 µM | > 100 µM | > 100 µM | 52 µM | – | – | – | – | > 100 µM | – | – | – | – | – | –
15 | O=C1/C(=C/c2ccc(F)cc2)CCOc2ccc([N+](=O)[O-])cc21 | – | 4.62 µM | > 100 µM | 6.35 µM | 3.7 µM | 5.03 µM | 5.61 µM | 2 µM | 35.9 µM | 2.07 µM | 2.04 µM | 4.75 µM | 1.71 µM | 2.12 µM | 4.99 µM | 2.06 µM | 2.22 µM | –
16 | O=C(CSc1nc2ccc([N+](=O)[O-])cc2[nH]1)Nc1ccc(F)c(Cl)c1 | – | 11.5 µM | 14 µM | > 37.3 µM | 7.84 µM | 7.8 µM | 12.4 µM | 2.65 µM | 2.89 µM | 3 µM | 2.95 µM | 11.8 µM | 2.34 µM | 2.31 µM | 8.23 µM | 1.69 µM | 2.81 µM | –

— PubChem BioAssay (NCI)
